Among the data in PubChem BioAssay (NCI) are TGI and GI50 values, retold here.

Common to all, as to test: inhibition of tumour cell growth, NCI panel, 48 h
In assay [1] the test system is HT29 colon.
Assay [2] deals with SR leukemia.
Assay [3] has as its system COLO 205 colon.
Assay [4] concerns MDA-MB-231 breast.
In assay [5] the test system is CAKI-1 renal.
For assay [6], the system named is UACC-257 melanoma.
Assay [7] has as its system OVCAR-8 ovarian.
The subject of assay [8] is NCI/ADR-RES ovarian.
Assay [9] has as its system NCI-H522 lung.

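The compound was tested at five concentrations on cells cultured in 96-well plates, with a 48-hour exposure period. GI50 is the concentration that inhibits growth by half. The concentration for full growth arrest is given as TGI.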

`CCN(CC)c1ccc(/C=c2\nc(-c3ccccc3)n3c2nc2ccccc23)cc1`: the TGI in assay [1] was 5.98 µM; in [2], over 100 µM; in assay [3] it was 20.1 µM; in assay [4] it was over 100 µM; in assay [5], 9.72 µM; in assay [6], 99.3 µM. In addition, the TGI was over 100 µM in [7] and 26.6 µM in [8].

With `NNC(=O)Cc1cccnc1`, the TGI in assay [1], in assay [3], in [4], in assay [9], in assay [5] and in assay [6] was over 100 µM in each case. In addition, the TGI in [7] and in [8] was over 100 µM throughout.

As for `c1nncn1C12C3C4C5C3C1C5C42` (stereo unspecified), the TGI in assay [1], in [2], in assay [3], in assay [4], in [9] and in [6] was over 100 µM throughout. The TGI in [7] and in assay [8] was over 100 µM throughout.

Take `CCOC(O)C(F)(F)F` (stereo unspecified): the TGI in assay [1], in assay [2], in [3], in [4], in [6] and in [7] was over 100 µM each time. The TGI in assay [8] was over 100 µM.

`NC(Cc1ccccc1)=NCC(=O)O`: the TGI in assay [1], in assay [3], in [4], in assay [9], in [5] and in assay [6] was over 100 µM throughout. In addition, the TGI in [7] and in assay [8] was over 100 µM in each case.

On to `CCC(C)NC(=S)N/N=C(\C)c1ccccn1` (stereo unspecified), for which the TGI in assay [1] is over 100 µM; in assay [3], over 100 µM; in assay [4], over 100 µM; in assay [9], 51.4 µM; in assay [5] it was over 100 µM; in [7], over 25.8 µM. In addition, the TGI in [8] came to 7.94 µM.

Consider `COC(=O)C1=COC(C)C2C[n+]3ccc4c([nH]c5ccccc54)c3CC12` (stereo unspecified), for which the TGI in [1], in assay [3], in assay [4], in assay [9], in [5] and in assay [6] was over 100 µM throughout. Further, the TGI in [7] and in assay [8] was over 100 µM in each case.

`C=C(C)[C@@H]1CC[C@]2(CO)CC[C@]3(C)[C@H](CC[C@@H]4[C@@]5(C)CC[C@H](O)C(C)(C)[C@@H]5CC[C@]43C)[C@@H]12`: the TGI in assay [1] is 48.6 µM; in assay [2], over 100 µM; in [4], over 100 µM; in assay [9], 64.9 µM; in assay [5] it was 29 µM; in assay [6] it was 54.9 µM. The TGI was 60.1 µM in assay [7] and over 100 µM in assay [8].

In the case of `CCOC(=O)c1[nH]cnc1/N=N/N(C)N`, the TGI is over 100 µM in assay [1]; over 100 µM in [3]; over 100 µM in assay [4]; 78.7 µM in assay [9]; 61.2 µM in assay [5]; over 100 µM in assay [6]. Also, the TGI in assay [7] and in [8] was over 100 µM throughout.

`C/C=C1\CN2CCC34c5ccccc5N(C)C35OCC4(C(=O)OC)C1CC25` (stereo unspecified): the TGI in assay [2] was over 100 µM; in assay [3], 31.5 µM; in [4], over 100 µM; in assay [9], over 100 µM; in [5] it was over 100 µM; in [6] it was over 100 µM.

Take `CC(=O)N1CC(C)(C)c2c1cc(C)c(O)c2C`: the TGI in assay [1], in assay [3], in [4], in assay [9], in [6] and in [7] was over 100 µM throughout. In addition, in assay [8], the TGI is over 100 µM.

On to `CCn1nc(-c2ccccc2)c2c1N(C)c1ccccc1-n1c(-c3ccccc3)nnc1-2`, for which the TGI in assay [2] was over 100 µM; in [3], 48.5 µM; in [4], 28.6 µM; in [7], 62.3 µM; in [8], 40.3 µM.

Consider `COc1cc(C(=O)O[C@H](C(=O)NCCNC(=O)[C@@H](OC(=O)c2cc(OC)cc3c(C)cccc23)[C@]2(C)CO2)[C@]2(C)CO2)c2cccc(C)c2c1`, for which the GI50 in [1] is under 0.0198 µM; in assay [3], 0.149 µM; in assay [5], 0.0563 µM; in assay [7], under 0.01 µM; in assay [8], 0.25 µM. For the same molecule, the TGI in [1] turned out to be 29.1 µM; in assay [5], 0.252 µM; in assay [6] it was 0.343 µM; in [7], 0.0683 µM; in assay [8], 1.52 µM.

With `CC1(C)C2CCC1(C)C(N/C(=C(/C(Cl)=C(Cl)Cl)[N+](=O)[O-])n1nnc3ccccc31)C2` (stereo unspecified), the TGI in [1] is over 100 µM; in [3] it was 34.4 µM; in [4], 53.7 µM; in assay [5], 37 µM; in assay [6], over 100 µM; in assay [7], over 100 µM. Further, the TGI in assay [8] came to 97.6 µM.

For the molecule `N#CC(c1nc2ccccc2s1)c1nc(Cl)ncc1Br` (stereo unspecified), the TGI is over 100 µM in [1]; over 100 µM in [3]; over 100 µM in [4]; 62.1 µM in assay [9]; over 100 µM in assay [5]; over 100 µM in [6]. The TGI in assay [7] and in assay [8] was over 100 µM in each case.

As to `CC(=O)Nc1ccc(N2C(=O)CS(=O)(=O)C2c2cccc(Oc3ccccc3)c2)cc1` (stereo unspecified), the TGI in assay [1] amounted to 37.7 µM; in [2] it was 48.7 µM; in [3], 35.7 µM; in [4] it was 36 µM; in assay [9], 41.9 µM; in assay [6], 33.8 µM. Moreover, the results for the TGI in [7] and in assay [8] were 41.6 µM and 48.7 µM, respectively.

`OCc1c2c(cc3c1CC1(C3)Cc3cc4c(c(CO)c3C1)CCC4)CCC2`: the TGI turned out to be 32.4 µM in assay [1]; 42.4 µM in assay [3]; 32.1 µM in [4]; 28.5 µM in assay [9]; 23.8 µM in assay [6]; 38 µM in assay [7]. The TGI in assay [8] came out at 37.8 µM.

Turning to `O=C1CSC(c2cccc(Cl)c2)N1c1c(O)c(Cl)cc(Br)c1Cl` (stereo unspecified), the TGI in assay [1] was over 100 µM; in assay [2], 70.6 µM; in assay [3], 61.2 µM; in assay [4], 27.5 µM; in assay [5], over 100 µM; in [6], 67.4 µM. Also, the TGI in assay [8] was over 100 µM.

Turning to `COC(=O)c1c(O)ccc2c1c1c(n2Cc2ccc(OC)cc2)C(=O)c2ccccc2C1=O`, the TGI amounted to 8.55 µM in assay [1]; 2.92 µM in assay [2]; 3.3 µM in [3]; 17.1 µM in [9]; 86.4 µM in assay [5]; 94.3 µM in [6]. Moreover, the TGI in assay [7] was found to be 11.7 µM; in [8], 37.2 µM.

For the molecule `Cc1ccc(S(=O)(=O)NC(=O)NC(Cc2ccccc2)C(=O)O)cc1` (stereo unspecified), the TGI in assay [1], in assay [2], in assay [3], in assay [4], in assay [9] and in [6] was over 100 µM in each case. The TGI in assay [7] and in assay [8] was over 100 µM throughout.

For the molecule `Fc1ccc(C2NC(=S)NC3=C2CCOc2c3ccc3ccccc23)cc1` (stereo unspecified), the TGI in assay [3] was 30.3 µM; in [9], over 100 µM; in [5] it was over 100 µM; in assay [6], over 100 µM; in [7], over 100 µM; in assay [8], 76.2 µM.

Regarding `O=c1[nH]c(=S)c2cc3c(=S)[nH]c(=O)n(CCC(c4ccccc4)(c4ccccc4)c4ccccc4)c3nc2n1CCC(c1ccccc1)(c1ccccc1)c1ccccc1`, the TGI in [3], in [4], in assay [9], in assay [5], in assay [6] and in [8] was over 100 µM each time.

For the molecule `Cc1c(NC(=S)N/N=C\C(=N/NC(=S)Nc2c(C)n(C)n(-c3ccccc3)c2=O)c2ccccc2)c(=O)n(-c2ccccc2)n1C`, the TGI in assay [1], in assay [2], in [3], in assay [4], in assay [5] and in assay [6] was over 100 µM throughout. Further, in assay [8], the TGI was over 100 µM.

Consider `COC(=O)c1c(C)ccc2c(O)c3c(cc12)C(=O)c1c2c(cc(O)c1C3=O)C1(C)OC(C)(O2)C(O)C(N(C)C)C1O` (stereo unspecified), for which the TGI in [1] was 2.01 µM; in assay [3], 7.56 µM; in assay [4], 3.21 µM; in assay [9] it was 2.33 µM; in [5], 6.32 µM; in assay [6], 3.09 µM. Further, the TGI is 2.27 µM in assay [7] and over 100 µM in [8].

Regarding `CC(C)(C)OC(=O)NC1CCCC1C(O)(C1=CCCC1)C1=CCCC1` (stereo unspecified), the TGI in assay [1], in assay [2], in assay [3], in assay [4], in assay [6] and in [7] was over 100 µM each time. The same molecule returned a TGI in [8] of over 100 µM.

Turning to `O=c1[nH]nc(Cc2ccccc2)n1/N=C/c1ccc([N+](=O)[O-])o1`, the TGI in [1] is 18.9 µM; in assay [3], over 100 µM; in assay [4], 18.4 µM; in assay [9], 3.87 µM; in [5], 25 µM; in assay [6], 19.7 µM. Besides, the TGI in assay [7] is 19.2 µM; in assay [8] it was 13.1 µM.

Consider `c1ccc2c(c1)nc1n2CCNC1`, for which the TGI in [1], in [2], in assay [3], in assay [4], in assay [5] and in assay [6] was over 100 µM in each case. Besides, the TGI in assay [7] and in assay [8] was over 100 µM in each case.

Take `COc1ccc(C[C@H]2NC(=O)/C=C/C[C@@H]([C@H](C)[C@H]3O[C@@H]3c3ccccc3)OC(=O)[C@H](CC(C)C)OC(=O)[C@H](C)CNC2=O)cc1`: the TGI in [1] is over 6.54e-05 µM; in assay [3], 4.99e-05 µM; in assay [4] it was over 8.79e-05 µM; in assay [9] it was over 0.0001 µM; in assay [5], over 0.0001 µM; in assay [6], over 0.0001 µM. Besides, the TGI was 5.55e-05 µM in assay [7] and over 0.0001 µM in assay [8].

As to `Cc1ccc(S(=O)(=O)N(CC(O)c2ccccc2)c2ccccc2F)cc1` (stereo unspecified), the TGI in assay [1] was 34.4 µM; in assay [3], 28.8 µM; in [4], 36.6 µM; in assay [9], 32 µM; in assay [5] it was 33.7 µM; in [6] it was 16.1 µM. The TGI in assay [7] is 36.9 µM; in assay [8] it was 35.1 µM.

Regarding `CC1(C)CC(=O)C2=C(C1)NC(SCC(=O)O)=C(C#N)C2c1ccc(Br)cc1` (stereo unspecified), the TGI in assay [1], in [3], in [4], in assay [9], in assay [5] and in assay [6] was over 100 µM in each case. The TGI in assay [7] and in assay [8] was over 100 µM each time.

Turning to `c1ccc2c(c1)CCN(C1=NCCO1)C2`, the TGI in assay [1], in assay [3], in assay [4], in assay [9], in [5] and in [6] was over 10 µM each time. For the same molecule, the TGI in assay [7] and in assay [8] was over 10 µM each time.

For `C/C=C1/CN2[C@@H](C3=C[C@@H]4[C@@H]5N(C3=O)c3ccccc3[C@@]53CCN5C/C(=C/C)[C@@H]4C[C@H]53)C[C@@]34c5ccccc5N5C(=O)CC=C([C@H]1C[C@H]23)[C@H]54`, the TGI in [1] is 8.08 µM; in assay [3], 7.54 µM; in assay [4], 9.19 µM; in assay [9] it was 14.6 µM; in assay [5], 15.7 µM; in assay [6], 2.9 µM. The TGI in assay [7] stood at 13.1 µM; in assay [8] it was 33.6 µM.
